Patent publication EP2065031A1, “Skin treatment composition” (Evonik Goldschmidt GmbH, priority 2007, dated 2009)

Legend:
[1] = solubility of arjunolic acid in water, cosmetic oils and solvents; type: physicochemical
From the text: Skin is subject to deterioration through the passage of time (chronological aging, dermatological disorders, hormonal changes, environmental abuse (wind, air conditioning, central heating, pollution) all of which may be accelerated by exposure of skin to radiation from the sun (photoaging). Chronological aging and photoaging is summarized under the term aging. Consumers are increasingly seeking cosmetic products which treat or delay the visible signs of aging skin such as wrinkles, lines, loss of elasticity, uneven skin tone, dry skin, sagging, hyperpigmentation and age spots. There continues to be a need, however, for alternative effective cosmetic compositions for topical application to skin for treating and delaying skin aging. […] This effect be boosted by combinations with at least one additional active selected from the group of anti-aging, anti-inflammatory, anti-cellulite, moisturization, skin barrier improving, anti-wrinkle, firming, soothing or calming active ingredients. As described above arjunolic acid is poorly soluble in common solvents: It is insoluble in water and poorly soluble in cosmetic oils like mineral oil, isopropyl myristate or other ester oils or cosmetic solvents like propylene glycol or glycerol. The solubility of arjunolic acid in propylene glycol is only 0.6%; in ispropylmyristate, mineral oil and glycerin less than 0.1% arjunolic acid are soluble. This leads to the problem that it is very difficult to keep a sufficient amount of arjunolic acid solubilized in the cosmetic preparation without crystallization.

TSP1 = TSP1 expression in reconstructed human epidermis (RHE) skin models, real time RT-PCR; type: cell-based; conditions: 50 µl aqueous formulation containing 0.325% arjunolic acid, 48 hours, versus formulation without arjunolic acid, read-out: increased expression of TSP1
Description: Since thrombospondin 1 (TSP1) has been described by Murphy-Ullrich et al. 2000, Cytokine & Growth Factor Reviews; 11: 59-69 as one of the most important endogenous activators of TGF-β1 we investigated the effect of arjunolic acid on TSP1 expression in reconstructed human epidermis (RHE) skin models.
For this purpose RHE skin models (SkinEthic laboratories, Nice, France) were incubated with 50 µl of the test formulation (aqueous arjunolic acid formulation containing 0.325% arjunolic acid, 3% Glyceryl Stearate, 3% Ceteareth-20, 1% Stearyl Alcohol, 4% Cetearyl Ethylhexanoate/Isopropylmyristate and 4% Caprylic/Capric Triglyceride) in a humidified atmosphere containing 5 % CO2 for 48 hours. Then cell culture supernatants were removed and skin models were immediately transferred into a 2 ml reaction tube containing 1,5 ml RNAlater RNA stabilisation reagent (#76104, Qiagen, Hilden, Germany) to avoid RNA degradation. Controls received formulation without arjunolic acid only. […] Real time RT-PCR analysis was performed to quantify expression of TSP1. […] Results were analysed with SDS 2.0 software (Applied Biosystems). Relative quantification was performed according to the delta-delta-Ct method with 18s ribosomal RNA (18s rRNA) used as a house keeping gene.

skin [2] = assay: transepidermal water loss (Tewameter) in volunteers; type: in vivo, human; conditions: formulation with 0.1625% arjunolic acid versus carrier, twice daily, 4 weeks, left inner forearm, figure 1
From the text: (§1) For the study 30 volunteers were recruited. 15 volunteers got the test formulation with 0.1625% arjunolic acid, 15 got the formulation without active ingredient (carrier). They applied the test formulation twice daily over a period of 4 weeks on the left inner forearm. A Tewameter (TM 300, Courage & Khazaka, Cologne, D) was used to determine the transepidermal water loss. A corneometer (CM825, Courage & Khazaka, Cologne, D) was used to determine the skin hydration. The measurements were performed before the application started and after 4 weeks. Before the measurement started the panelists had to climatize in a climatic room at 21-22°C and 50% relative humidity for at least 15 min.

skin [3] = assay: skin hydration (corneometer) in volunteers; type: in vivo, human; conditions: formulation with 0.1625% arjunolic acid, twice daily, 4 weeks, left inner forearm, figure 2
From the text: as §1

skin [4] = assay: skin elasticity (Cutometer) in volunteers; type: in vivo, human; conditions: formulation containing 0.1625% arjunolic acid, twice daily, 8 weeks, left inner forearm
Description: Method: For this study 30 volunteers were recruited. 15 volunteers got the test formulation with 0.1625% arjunolic acid, 15 got the formulation without active ingredient (carrier). They applied the test formulation twice daily over a period of 8 weeks on the left inner forearm.
The skin elasticity was assessed with a Cutometer MPA 580 (Courage & Khazaka, Cologne, D) which measures the vertical deformation of the skin when sucked into the loop of a measuring probe and reversed into its original condition. From the stretching/release cycles different parameters describing the skin elasticity were calculated. The parameter R1 describes the remaining deformation after the first stretching cycle while R5 is known as netto elasticity (R5 = UR/UE).
For the stretching a vacuum of 450 mbar was kept for 5s, the relaxing time was also 5s. The measurement was carried out after a climatization of the volunteers at room temperature and 50 % relative humidity for at least 15 min. before the treatment started and after 8 weeks of application.

skin [5] = assay: skin scaliness (Visioscan camera) in volunteers; type: in vivo, human; conditions: 0.25% arjunolic acid in the formulation as printed, versus carrier, twice daily, 4 weeks, left inner forearm, figure 5
Description: For this study 30 volunteers were recruited. […] They applied the test formulation twice daily over a period of 4 weeks on the left inner forearm. The measurement was carried out after an acclimatization of the volunteers at room temperature and 50 % relative humidity before the treatment started and after 4 weeks of application.
For the evaluation of the skin scaliness a special camera (Visioscan VC 98, Courage & Khazaka, Cologne, D) was used. […] The picture taken with this camera is converted into a digital signal with 256 grey levels. Via the grey level distribution the software calculates the skin scaliness.

[6] = tested on: human skin fibroblast cells; conditions: incubation of human skin fibroblast cells with 6.25 mg/mL arjunolic acid; cited from earlier work
skin [7] = conditions: moisturizer containing arjunolic acid, volunteers; cited from earlier work

solubility in glycerin ([1]; glycerin): less than 0.1%
solubility in ispropylmyristate ([1]; ispropylmyristate): less than 0.1%
solubility in mineral oil ([1]; mineral oil): less than 0.1%
solubility in propylene glycol ([1]; propylene glycol): 0.6%
solubility in water ([1]; water): insoluble
Compound: CC1(C)CC[C@]2(C(=O)O)CC[C@]3(C)C(=CC[C@@H]4[C@@]5(C)C[C@@H](O)[C@H](O)[C@@](C)(CO)[C@@H]5CC[C@]43C)[C@@H]2C1 [arjunolic acid, 2a,3b,23-trihydroxyolean-12-en-28-oic acid]
fold induction at 0.325 % (TSP1): ~10
transepidermal water loss (TEWL) (skin [2]): improves skin barrier
skin hydration (skin [3]): increases skin hydration significantly
R1, the remaining deformation after the first stretching cycle (skin [4]; figure 3): improved significantly
R5, the netto elasticity (skin [4]; figure 4): improved significantly
reduction of the scaliness (skin [5]): improved further
collagen formation [6]: 30.9 ng/mg
anti-wrinkle effects (skin [7]): good anti-wrinkle effects
